In patent publication EP0135897A2 (priority 1983, dated 1985):

Key:
[1] = system: Reispflanzen (Varietät: Asahi); conditions: in vivo
[2] = system: Brusone-Pilzes (Piricularia oryzae); assay type: in vivo; conditions: Wirkstoff-Konzentration 0,8 g/m^2 applied to the water surface; rice (Asahi) inoculated 4 days later; assessed 7 days after inoculation; three pots per test

Structure (SMILES)	Phyto-toxizität [1]	Bekämpfungs-Index (%) [2] [%]
CC1(CCl)C(CO)C1(Cl)Cl (stereo not drawn) [Verbindung d. Erfindung, 2,2-Dichloro-(cis)-3-methyl-(trans)-3-chloromethylcyclopropanmethanol]	-	100
CC1(CCl)C(COC(=O)CCl)C1(Cl)Cl [D-1, 2,2-Dichloro-(cis)-3-methyl-(trans)-3-chloromethylcyclopropanmethanol-chloroacetat]	-	100
